Experiments:
[1] = Pharmacokinetics in C57 mice; conditions: in vivo
Description: After subcutaneous or intravenous administration to C57 mice, plasma was collected and the drug concentration in plasma was determined to illustrate the in vivo pharmacokinetic properties of the compound according to the present invention. […] 20.0 µL of thawed plasma sample was taken. 20 µL of 50% aqueous methanol solution (containing 100 ng mL^-1 Tolbutamide) and 60 µL of acetonitrile were added sequentially to precipitate protein. The mixture was vortexed for 5 minutes, and centrifuged at 4815 rpm for 8 minutes. 50.0 µL of the supernatant was taken, into which 50.0 µL of 0.5% aqueous formic acid solution was added. The mixture was vortexed for 5 minutes. 50 µL of the mixture solution was sampled and injected into the LC-MS/MS to determine the drug concentration in plasma. Based on the drug concentration in plasma of the compounds in C57 mice, the pharmacokinetic parameters were calculated by applying the software Winnolin 8.3 in a non-compartmental model, and the results were shown in Table 7 and Table 8 below. Table 7 Average Pharmacokinetic Parameters after Single Subcutaneous Administration to Mice

[2] = Pharmacokinetics in cynomolgus monkeys; conditions: cynomolgus monkey, in vivo
Description: After subcutaneous or intravenous administration to cynomolgus monkeys, plasma was collected and the drug concentration in plasma was determined to illustrate the in vivo pharmacokinetic properties of the compound according to the present invention. […] 70.0 µL of thawed plasma sample was taken. 70 µL of acetonitrile (containing 1 ng/ml of the internal standard) was added to precipitate protein. […] The mixture was vortexed for 5 minutes. 10 µL of the mixture solution was sampled and injected into the LC-MS/MS to determine the drug concentration in plasma. […] Table 9 Average Pharmacokinetic Parameters after Single Subcutaneous Administration to Cynomolgus Monkeys

db/db mice = assay: Multiple administration experiment on db/db mice; type: in vivo; conditions: for Efficacy Dose: db/db mice multiple administrations, dose with blood glucose AUC p<0.05 vs. Vehicle; for AUC 4-25 day Glu / D28 FBG(Fasting Blood Glucose) / Liver Weight / Serum ALT / Serum TBIL / Serum TG: db/db mice, s.c. every 3 days for 4 weeks, Mean±SEM, 6 mice
Description: "Minimum effective dose" as disclosed in the present invention refers to the minimum administration dose at which the drug effect is produced.
"Efficacy dose" as disclosed in the present invention refers to the administration dose at which the drug effect is produced.
In this study, 7-8 week old male db/db mice were used. The db/db mice were placed in an individual ventilated cage (IVC) facility with a controlled temperature (20-26°C) and humidity (40-70%) and a controlled 12:12 h light-dark cycle. The mice received food and water ad libitum. Blood were sampled at the tail tip, and the base blood glucose was measured by a Roche blood glucose meter. The mice were randomly divided into groups according to the initial blood glucose and initial body weight (n=6/group), and each group had similar body weight and blood glucose.
The mice were subcutaneously administrated every 3 days for 4 weeks. Subcutaneous administration was conducted on days 1, 4, 7, 10, 13, 16, 19, 22 and 25. Random blood glucose was recorded every 3 days throughout the study. On day 28, the fasting blood glucose was measured. Then the blood was collected by orbital blood sampling. After the orbital blood sampling, the animals were sacrificed, and the liver was taken and weighed. After 1 to 2 hours, the collected blood was centrifuged at 3000 rpm for 10 min to separate the serum. Biochemical indicators such as triglyceride (TG), alanine aminotransferase (ALT), and total bilirubin (TBIL) were determined with a biochemical analyzer. The data results were statistically analyzed using GraphPad Prism8, and the statistical differences among the groups were analyzed following T-Test. Significant differences were identified at p<0.05.

human GLP-1R = human GLP-1R (Homo sapiens, UniProt P43220); assay: In vitro binding activity to human GLP-1 receptor ([125I]GLP-1 displacement, crude cell membranes); parameters: expressed in transfected cells; conditions: ratio of the Ki value of the endogenous ligand to the Ki value of the test compound; larger ratio = stronger binding
[3] = sc, cynomolgus monkeys, single subcutaneous administration, 25 nmol/kg
[4] = cynomolgus monkeys, single intravenous administration, 12.5 nmol/kg

human GLP-1R, sequence (P43220 24-463): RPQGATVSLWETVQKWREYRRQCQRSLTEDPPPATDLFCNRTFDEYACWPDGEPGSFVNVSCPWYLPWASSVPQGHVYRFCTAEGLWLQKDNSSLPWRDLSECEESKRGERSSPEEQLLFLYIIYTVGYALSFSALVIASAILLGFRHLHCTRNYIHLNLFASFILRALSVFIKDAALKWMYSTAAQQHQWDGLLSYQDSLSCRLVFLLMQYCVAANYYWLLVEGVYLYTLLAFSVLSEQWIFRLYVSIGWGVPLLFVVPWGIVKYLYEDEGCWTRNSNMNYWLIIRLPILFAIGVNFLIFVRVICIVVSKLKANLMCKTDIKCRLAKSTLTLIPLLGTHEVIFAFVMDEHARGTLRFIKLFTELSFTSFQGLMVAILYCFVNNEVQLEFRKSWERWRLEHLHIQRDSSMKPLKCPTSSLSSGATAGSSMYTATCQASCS

`CC[C@H](C)[C@H](NC(=O)C(C)(C)NC(=O)[C@H](Cc1ccc(O)cc1)NC(=O)[C@H](CC(=O)O)NC(=O)[C@H](CO)NC(=O)[C@@H](NC(=O)C(C)(Cc1ccccc1)NC(=O)[C@@H](NC(=O)CNC(=O)[C@H](CCC(=O)O)NC(=O)C(C)(C)NC(=O)[C@@H](N)Cc1ccc(O)cc1)[C@@H](C)O)[C@@H](C)O)C(=O)NC(C)(C)C(=O)N[C@@H](CC(C)C)C(=O)N[C@@H](CC(=O)O)C(=O)N[C@@H](CCCCN)C(=O)N[C@@H](CCC(N)=O)C(=O)N[C@@H](C)C(=O)N[C@@H](CCC(N)=O)C(=O)N[C@@H](C)C(=O)N[C@@H](CCC(=O)O)C(=O)N[C@@H](Cc1ccccc1)C(=O)N[C@H](C(=O)N[C@@H](CCCCNC(=O)COCCOCCNC(=O)COCCOCCNC(=O)COCCOCCNC(=O)CC[C@H](NC(=O)CCCCCCCCCCCCCCCCCCCCC(=O)O)C(=O)O)C(=O)N[C@@H](Cc1c[nH]c2ccccc12)C(=O)N[C@@H](CC(C)C)C(=O)N[C@@H](CC(C)C)C(=O)N[C@@H](CCCCN)C(=O)NCC(=O)NCC(=O)N1CCC[C@H]1C(=O)N[C@@H](CO)C(=O)N[C@@H](CO)C(=O)NCC(=O)N[C@@H](C)C(=O)N1CCC[C@H]1C(=O)N1CCC[C@H]1C(=O)N1CCC[C@H]1C(=O)N[C@@H](CO)C(=O)N[C@@H](CCCCN)C(N)=O)C(C)C` (some centres unmarked) [Compound P016] showed an MRT ([1]; C57, mouse, iv, MRT(0-t)) of 19.9 h, an MRT ([1]; C57, mouse, iv, MRT(0-∞)) of 26.6 h and an MRT ([1]; C57, mouse, sc, MRT(0-t)) of 26 h. For the same compound, the MRT ([1]; C57, mouse, sc, MRT(0-∞)) was 35.9 h, the AUC(0-t) ([1]; mouse, sc, C57 mice, single subcutaneous administration, read-out: AUC(0-t)) was 15900 ng·h/mL and the AUC(0-inf) ([1]; mouse, sc, C57 mice, single subcutaneous administration, read-out: AUC(0-∞)) was 18200 ng·h/mL. The Cmax ([1]; mouse, sc, C57 mice, single subcutaneous administration, read-out: Cmax) was 434 ng/mL, the half-life ([1]; mouse, sc, C57 mice, single subcutaneous administration, read-out: T1/2 (converted)) was 23.1 h and the Tmax ([1]; mouse, sc, C57 mice, single subcutaneous administration, read-out: Tmax) was 8 h. For the same compound, the AUC(0-t) ([1]; mouse, C57 mice, single intravenous administration, read-out: AUC(0-t)) was 11100 ng·h/mL, the AUC(0-inf) ([1]; mouse, C57 mice, single intravenous administration, read-out: AUC(0-∞)) was 12100 ng·h/mL and the C0 ([1]; mouse, C57 mice, single intravenous administration, read-out: C0) was 1150 ng/mL. It also gave a half-life ([1]; mouse, C57 mice, single intravenous administration, read-out: T1/2 (converted)) of 20.1 h, an AUC(0-inf) [2, 3] of 323000 ± 44600 ng·h/mL and an AUC(0-t) [2, 3] of 319000 ± 41500 ng·h/mL. For the same compound, the Cmax [2, 3] was 3000 ± 481 ng/mL, the half-life ([2]; sc, cynomolgus monkeys, single subcutaneous administration, 25 nmol/kg, read-out: T1/2 (converted)) was 60.4 ± 12.8 h and the Tmax ([2]; sc, cynomolgus monkeys, single subcutaneous administration, 25 nmol/kg, read-out: Tmax) was 40 ± 13.9 h. For the same compound, the AUC(0-inf) [2, 4] was 80000 ± 21100 ng·h/mL, the AUC(0-t) [2, 4] was 78200 ± 20300 ng·h/mL and the C0 [2, 4] was 1700 ± 335 ng/mL. The half-life ([2]; cynomolgus monkeys, single intravenous administration, 12.5 nmol/kg, read-out: T1/2 (converted)) was 59.8 ± 8.95 h, the “Efficacy Dose” value (db/db mice) was 3 nmol/kg and the “AUC 4-25 day Glu” value (db/db mice; 3 nmol/kg) was 256.38 ± 22 mmol·days/L. The “D28 FBG(Fasting Blood Glucose)” value (db/db mice; 3 nmol/kg) was 10.42 ± 1.46 mmol/L, the “Liver Weight” value (db/db mice; 3 nmol/kg) was 2.24 ± 0.1 g and the “Serum ALT” value (db/db mice; 3 nmol/kg) was 137.93±34.59 U/L. For the same compound, the “Serum TBIL” value (db/db mice; 3 nmol/kg) was 0.82 ± 0.13 µmol/L, the “Serum TG” value (db/db mice; 3 nmol/kg) was 1.21 ± 0.04 mmol/L and the “AUC 4-25 day Glu” value (db/db mice; 10 nmol/kg) was 249.25 ± 41.42 mmol·days/L. For the same compound, the “D28 FBG(Fasting Blood Glucose)” value (db/db mice; 10 nmol/kg) was 12.5 ± 2.19 mmol/L, the “Liver Weight” value (db/db mice; 10 nmol/kg) was 1.98 ± 0.12 g and the “Serum ALT” value (db/db mice; 10 nmol/kg) was 128.94±16.93 U/L. The “Serum TBIL” value (db/db mice; 10 nmol/kg) was 1.22 ± 0.28 µmol/L, the “Serum TG” value (db/db mice; 10 nmol/kg) was 1.22 ± 0.24 mmol/L and the “AUC 4-25 day Glu” value (db/db mice; 30 nmol/kg) was 163.98 ± 11.57 mmol·days/L. The “D28 FBG(Fasting Blood Glucose)” value (db/db mice; 30 nmol/kg) was 6.05 ± 0.41 mmol/L, the “Liver Weight” value (db/db mice; 30 nmol/kg) was 1.78 ± 0.08 g and the “Serum ALT” value (db/db mice; 30 nmol/kg) was 97.7±12.36 U/L. For the same compound, the “Serum TBIL” value (db/db mice; 30 nmol/kg) was 0.73 ± 0.16 µmol/L, the “Serum TG” value (db/db mice; 30 nmol/kg) was 1.2 ± 0.05 mmol/L and the “GLP-1R Ki ratio” value (human GLP-1R) was 0.63.
`CC[C@H](C)[C@H](NC(=O)C(C)(C)NC(=O)[C@H](Cc1ccc(O)cc1)NC(=O)[C@H](CC(=O)O)NC(=O)[C@H](CO)NC(=O)[C@@H](NC(=O)C(C)(Cc1ccccc1)NC(=O)[C@@H](NC(=O)CNC(=O)[C@H](CCC(=O)O)NC(=O)C(C)(C)NC(=O)[C@@H](N)Cc1ccc(O)cc1)[C@@H](C)O)[C@@H](C)O)C(=O)NC(C)(C)C(=O)N[C@@H](CC(C)C)C(=O)N[C@@H](CC(=O)O)C(=O)N[C@@H](CCCCN)C(=O)N[C@@H](CCC(N)=O)C(=O)N[C@@H](C)C(=O)N[C@@H](CCC(N)=O)C(=O)N[C@@H](C)C(=O)N[C@@H](CCC(=O)O)C(=O)N[C@@H](Cc1ccccc1)C(=O)N[C@H](C(=O)N[C@@H](CCCCNC(=O)COCCOCCNC(=O)COCCOCCNC(=O)CC[C@H](NC(=O)CCCCCCCCCCCCCCCCCCCCC(=O)O)C(=O)O)C(=O)N[C@@H](Cc1c[nH]c2ccccc12)C(=O)N[C@@H](CC(C)C)C(=O)N[C@@H](CC(C)C)C(=O)N[C@@H](CCCCN)C(=O)NCC(=O)NCC(=O)N1CCC[C@H]1C(=O)N[C@@H](CO)C(=O)N[C@@H](CO)C(=O)NCC(=O)N[C@@H](C)C(=O)N1CCC[C@H]1C(=O)N1CCC[C@H]1C(=O)N1CCC[C@H]1C(=O)N[C@@H](CO)C(=O)N[C@@H](CCCCN)C(N)=O)C(C)C` (some centres unmarked) [Compound P014] gave an AUC(0-inf) ([1]; C57, mouse, iv) of 18200 ng·h/mL, an AUC(0-t) ([1]; C57, mouse, iv) of 17500 ng·h/mL and a C0 ([1]; C57, mouse, iv) of 1940 ng/mL. It also gave a half-life ([1]; C57, mouse, iv) of 17.2 h, an MRT ([1]; C57, mouse, iv, MRT(0-t)) of 15.7 h and an MRT ([1]; C57, mouse, iv, MRT(0-∞)) of 19.2 h. It also gave an AUC(0-inf) ([1]; C57, mouse, sc) of 30200 ng·h/mL, an AUC(0-t) ([1]; C57, mouse, sc) of 27300 ng·h/mL and a Cmax ([1]; C57, mouse, sc) of 852 ng/mL. It also gave a Tmax ([1]; C57, mouse, sc) of 6 h, a half-life ([1]; C57, mouse, sc) of 20.3 h and an MRT ([1]; C57, mouse, sc, MRT(0-t)) of 22.9 h. For the same compound, the MRT ([1]; C57, mouse, sc, MRT(0-∞)) was 30.3 h, the Tmax ([2]; sc) was 16 ± 6.93 h and the half-life ([2]; sc) was 52.7 ± 6.45 h. For the same compound, the “Efficacy Dose” value (db/db mice) was 3 nmol/kg, the “AUC 4-25 day Glu” value (db/db mice; 3 nmol/kg) was 294 ± 40.43 mmol·days/L and the “D28 FBG(Fasting Blood Glucose)” value (db/db mice; 3 nmol/kg) was 10.22 ± 1.58 mmol/L. For the same compound, the “Liver Weight” value (db/db mice; 3 nmol/kg) was 2.26 ± 0.18 g, the “Serum ALT” value (db/db mice; 3 nmol/kg) was 111.24±13.23 U/L and the “Serum TBIL” value (db/db mice; 3 nmol/kg) was 0.58 ± 0.11 µmol/L. The “Serum TG” value (db/db mice; 3 nmol/kg) was 1.39 ± 0.07 mmol/L, the “AUC 4-25 day Glu” value (db/db mice; 10 nmol/kg) was 214.4 ± 33.73 mmol·days/L and the “D28 FBG(Fasting Blood Glucose)” value (db/db mice; 10 nmol/kg) was 10.72 ± 1.75 mmol/L. The “Liver Weight” value (db/db mice; 10 nmol/kg) was 2.1 ± 0.14 g, the “Serum ALT” value (db/db mice; 10 nmol/kg) was 89.9±8.66 U/L and the “Serum TBIL” value (db/db mice; 10 nmol/kg) was 0.58 ± 0.15 µmol/L. For the same compound, the “Serum TG” value (db/db mice; 10 nmol/kg) was 1.29 ± 0.03 mmol/L, the “AUC 4-25 day Glu” value (db/db mice; 30 nmol/kg) was 190.62 ± 26.47 mmol·days/L and the “D28 FBG(Fasting Blood Glucose)” value (db/db mice; 30 nmol/kg) was 13.38 ± 3.38 mmol/L. The “Liver Weight” value (db/db mice; 30 nmol/kg) was 1.89 ± 0.31 g, the “Serum ALT” value (db/db mice; 30 nmol/kg) was 106.47±14.3 U/L and the “Serum TBIL” value (db/db mice; 30 nmol/kg) was 0.36 ± 0.15 µmol/L. The “Serum TG” value (db/db mice; 30 nmol/kg) was 1.14 ± 0.18 mmol/L and the “GLP-1R Ki ratio” value (human GLP-1R) was 0.37.
